# What was measured:
# [1] = tested on: CD69 expression on CD19+ B cells in human whole blood stimulated with anti-human IgD; assay: In Vitro whole blood CD69 Assay; format: cell-based; conditions: Homo sapiens, B-cell, human heparinized whole blood, anti-human IgD stimulation overnight, percentage of CD19+ B cells expressing CD69, flow cytometry; read-out: IC50
# BTK = BTK (Homo sapiens (Human), UniProt Q06187); assay: In Vitro BTK Kinase Assay: Btk-PolyGAT-LS Assay; format: biochemical; conditions: BTK enzyme 0.25 nM, ATP 10 μM, polyGAT 100 nM, 30 minutes incubation, TRF readout; read-out: IC50
# Sequence of BTK (Q06187 whole entry): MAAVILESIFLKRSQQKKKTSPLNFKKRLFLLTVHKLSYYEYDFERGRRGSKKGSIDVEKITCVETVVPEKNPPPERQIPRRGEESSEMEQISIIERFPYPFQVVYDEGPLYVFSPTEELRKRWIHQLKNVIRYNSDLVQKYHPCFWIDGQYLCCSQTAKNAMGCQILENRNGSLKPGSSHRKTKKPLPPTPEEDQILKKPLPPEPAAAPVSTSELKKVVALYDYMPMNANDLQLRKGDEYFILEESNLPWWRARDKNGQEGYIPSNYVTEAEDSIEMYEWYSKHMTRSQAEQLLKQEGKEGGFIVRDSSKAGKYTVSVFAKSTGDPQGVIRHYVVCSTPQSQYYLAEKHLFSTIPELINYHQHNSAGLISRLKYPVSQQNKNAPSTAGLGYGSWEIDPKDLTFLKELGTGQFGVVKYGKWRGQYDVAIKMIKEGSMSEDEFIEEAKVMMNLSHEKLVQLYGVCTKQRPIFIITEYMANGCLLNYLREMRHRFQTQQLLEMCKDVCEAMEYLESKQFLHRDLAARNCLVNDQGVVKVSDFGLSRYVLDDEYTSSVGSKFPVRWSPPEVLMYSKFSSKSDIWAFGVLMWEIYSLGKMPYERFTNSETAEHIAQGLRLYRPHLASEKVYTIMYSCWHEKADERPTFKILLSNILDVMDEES
# In short: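 Human BTK activity was measured with final 10 μM ATP and 100 nM polyGAT substrate in pH 7.5 Tris buffer with 10 mM MgCl2, DTT, Triton X-100 and casein.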
SMILES,IC50 [1],IC50 (BTK)
"C=CS(=O)(=O)N1CCC(Oc2nc(-c3cnn(C)c3)cn3nccc23)CC1 [Example 3, 6-(1-methyl-1H-pyrazol-4-yl)-4-((1-(vinylsulfonyl)piperidin-4-yl)oxy)pyrazolo[1,5-a]pyrazine]",> 10000 nM,< 1 nM
"C=CS(=O)(=O)N1CCC[C@@H](Oc2nc(-c3cnn(C)c3)cn3nccc23)C1 [Example 5, (R)-6-(1-methyl-1H-pyrazol-4-yl)-4-((1-(vinylsulfonyl)piperidin-3-yl)oxy)pyrazolo[1,5-a]pyrazine]",> 10000 nM,< 1 nM
"C=CS(=O)(=O)N1CCC[C@H](Oc2nc(-c3cnn(C)c3)cn3nccc23)C1 [Example 6, (S)-6-(1-methyl-1H-pyrazol-4-yl)-4-((1-(vinylsulfonyl)piperidin-3-yl)oxy)pyrazolo[1,5-a]pyrazine]",> 10000 nM,10 to 1000 nM
"C#CC(=O)N1CCC[C@@H](Oc2nc(-c3cnn(C)c3)cn3nccc23)C1 [Example 7, (R)-1-(3-((6-(1-methyl-1H-pyrazol-4-yl)pyrazolo[1,5-a]pyrazin-4-yl)oxy)piperidin-1-yl)prop-2-yn-1-one]",1000 to 10000 nM,< 1 nM
"C=CC(=O)N1CC(Oc2nc(-c3cnn(C)c3)cn3nccc23)C1 [Example 9, 1-(3-((6-(1-methyl-1H-pyrazol-4-yl)pyrazolo[1,5-a]pyrazin-4-yl)oxy)azetidin-1-yl)prop-2-en-1-one]",> 10000 nM,10 to 1000 nM
"C/C=C\S(=O)(=O)N1CC(Oc2nc(-c3cnn(C)c3)cn3nccc23)C1 [Example 10, (Z)-6-(1-methyl-1H-pyrazol-4-yl)-4-((1-(prop-1-en-1-ylsulfonyl)azetidin-3-yl)oxy)pyrazolo[1,5-a]pyrazine]",> 10000 nM,10 to 1000 nM
"C=CS(=O)(=O)N1CC[C@@H](Oc2nc(-c3cnn(C)c3)cn3nccc23)C1 [Example 12, (R)-6-(1-methyl-1H-pyrazol-4-yl)-4-((1-(vinylsulfonyl)pyrrolidin-3-yl)oxy)pyrazolo[1,5-a]pyrazine]",> 10000 nM,1 to 10 nM
"C#CC(=O)N1CC[C@@H](Oc2nc(-c3cnn(C)c3)cn3nccc23)C1 [Example 13, (R)-1-(3-((6-(1-methyl-1H-pyrazol-4-yl)pyrazolo[1,5-a]pyrazin-4-yl)oxy)pyrrolidin-1-yl)prop-2-yn-1-one]",< 1000 nM,< 1 nM
"C=CC(=O)N1CCC[C@H](COc2nc(-c3cnn(C)c3)cn3nccc23)C1 [Example 14, (S)-1-(3-(((6-(1-methyl-1H-pyrazol-4-yl)pyrazolo[1,5-a]pyrazin-4-yl)oxy)methyl)piperidin-1-yl)prop-2-en-1-one]",> 10000 nM,1 to 10 nM
"C=CS(=O)(=O)N1CCC[C@H](COc2nc(-c3cnn(C)c3)cn3nccc23)C1 [Example 15, (S)-6-(1-methyl-1H-pyrazol-4-yl)-4-((1-(vinylsulfonyl)piperidin-3-yl)methoxy)pyrazolo[1,5-a]pyrazine]",1000 to 10000 nM,1 to 10 nM
"C#CC(=O)N1CCC[C@H](COc2nc(-c3cnn(C)c3)cn3nccc23)C1 [Example 16, (S)-1-(3-(((6-(1-methyl-1H-pyrazol-4-yl)pyrazolo[1,5-a]pyrazin-4-yl)oxy)methyl)piperidin-1-yl)prop-2-yn-1-one]",< 1000 nM,< 1 nM
"C=CS(=O)(=O)N1CCC(CNc2nc(-c3cnn(C)c3)cn3nccc23)CC1 [Example 19, 6-(1-methyl-1H-pyrazol-4-yl)-N-((1-(vinylsulfonyl)piperidin-4-yl)methyl)pyrazolo[1,5-a]pyrazin-4-amine]",< 1000 nM,< 1 nM
"C=CC(=O)NC1CCCN(c2nc(-c3cnn(C)c3)cn3nccc23)C1 (stereo not drawn) [Example 20, N-[1-[6-(1-methylpyrazol-4-yl)pyrazolo[1,5-a]pyrazin-4-yl]-3-piperidyl]prop-2-enamide]",> 10000 nM,10 to 1000 nM
"C#CC(=O)NC1CCCN(c2nc(-c3cnn(C)c3)cn3nccc23)C1 (stereo not drawn) [Example 21, N-[1-[6-(1-methylpyrazol-4-yl)pyrazolo[1,5-a]pyrazin-4-yl]-3-piperidyl]prop-2-ynamide]",1000 to 10000 nM,1 to 10 nM
"Cn1cc(-c2cn3nccc3c(N3CCCC(NC(=O)/C=C/CCl)C3)n2)cn1 (stereo not drawn) [Example 22, 4-chloro-N-[1-[6-(1-methylpyrazol-4-yl)pyrazolo[1,5-a]pyrazin-4-yl]-3-piperidyl]but-2-enamide]",1000 to 10000 nM,1 to 10 nM
"C#CC(=O)N(C)C1CCCN(c2nc(-c3cnn(C)c3)cc3nccn23)C1 (stereo not drawn) [Example 23, N-methyl-N-[1-[7-(1-methylpyrazol-4-yl)imidazo[1,2-c]pyrimidin-5-yl]-3-piperidyl]prop-2-ynamide]",> 10000 nM,10 to 1000 nM
"C#CC(=O)N(C)C1CCCN(c2nc(-c3cnn(C)c3)cn3nccc23)C1 (stereo not drawn) [Example 24, N-methyl-N-[1-[6-(1-methylpyrazol-4-yl)pyrazolo[1,5-a]pyrazin-4-yl]-3-piperidyl]prop-2-ynamide]",> 10000 nM,10 to 1000 nM

SMILES,IC50 [1],IC50 (BTK)
"C#CC(=O)NCC1CCCN(c2nc(-c3cnn(C)c3)cn3nccc23)C1 (stereo not drawn) [Example 25, N-((1-(6-(1-methyl-1H-pyrazol-4-yl)pyrazolo[1,5-a]pyrazin-4-yl)piperidin-3-yl)methyl)propiolamide]",> 10000 nM,1 to 10 nM
"C=CC(=O)NCC1CCCCN1c1nc(-c2cnn(C)c2)cn2nccc12 (stereo not drawn) [Example 27, N-[[1-[6-(1-methylpyrazol-4-yl)pyrazolo[1,5-a]pyrazin-4-yl]-2-piperidyl]methyl]prop-2-enamide]",1000 to 10000 nM,10 to 1000 nM
"C=CS(=O)(=O)N1CCC[C@@H](Oc2nc(-c3cnn(C)c3)cn3nccc23)CC1 [Example 28, (R)-6-(1-methyl-1H-pyrazol-4-yl)-4-((1-(vinylsulfonyl)azepan-4-yl)oxy)pyrazolo[1,5-a]pyrazine]",< 1000 nM,< 1 nM
"C#CC(=O)N1CCC[C@@H](Oc2nc(-c3cnn(C)c3)cn3nccc23)CC1 [Example 30, (R)-1-(4-((6-(1-methyl-1H-pyrazol-4-yl)pyrazolo[1,5-a]pyrazin-4-yl)oxy)azepan-1-yl)prop-2-yn-1-one]",< 1000 nM,< 1 nM
"C#CC(=O)N1CCC[C@H](Oc2nc(-c3cnn(C)c3)cn3nccc23)CC1 [Example 31, (S)-1-(4-((6-(1-methyl-1H-pyrazol-4-yl)pyrazolo[1,5-a]pyrazin-4-yl)oxy)azepan-1-yl)prop-2-yn-1-one]",1000 to 10000 nM,< 1 nM
"C=CS(=O)(=O)N1CCC[C@H](Oc2nc(-c3cnn(C)c3)cn3nccc23)CC1 [Example 33, (S)-6-(1-methyl-1H-pyrazol-4-yl)-4-((1-(vinylsulfonyl)azepan-4-yl)oxy)pyrazolo[1,5-a]pyrazine]",1000 to 10000 nM,1 to 10 nM
"C#CC(=O)N1CC[C@@H](Oc2nc(-c3cnn(C)c3)cc3nccn23)C1 [Example 39, (R)-1-(3-((7-(1-methyl-1H-pyrazol-4-yl)imidazo[1,2-c]pyrimidin-5-yl)oxy)pyrrolidin-1-yl)prop-2-yn-1-one]",1000 to 10000 nM,10 to 1000 nM
C=CC(=O)Nc1cccc(Oc2nc(-c3cnn(C)c3)cc3nccn23)c1 [Example 43],< 1000 nM,1 to 10 nM
"C=CC(=O)N1CCOC[C@@H](Oc2nc(-c3cnn(C)c3)cn3nccc23)C1 [Example 54, (S)-1-(6-((6-(1-methyl-1H-pyrazol-4-yl)pyrazolo[1,5-a]pyrazin-4-yl)oxy)-1,4-oxazepan-4-yl)prop-2-en-1-one]",> 10000 nM,1 to 10 nM
"C=CC(=O)N1CCCC[C@H](Oc2nc(-c3cnn(C)c3)cn3nccc23)C1 [Example 55, (S)-1-(3-((6-(1-methyl-1H-pyrazol-4-yl)pyrazolo[1,5-a]pyrazin-4-yl)oxy)azepan-1-yl)prop-2-en-1-one]",> 10000 nM,10 to 1000 nM
"C=CC(=O)N1CCCC[C@@H](Oc2nc(-c3cnn(C)c3)cn3nccc23)C1 [Example 56, 1-[(3R)-3-[6-(1-methylpyrazol-4-yl)pyrazolo[1,5-a]pyrazin-4-yl]oxyazepan-1-yl]prop-2-en-1-one]",> 10000 nM,1 to 10 nM
"C=CC(=O)N1CCCC(Oc2nc(-c3cnn(C)c3)cn3ncnc23)CC1 (stereo not drawn) [Example 57, 1-(4-((6-(1-methyl-1H-pyrazol-4-yl)-[1,2,4]triazolo[1,5-a]pyrazin-8-yl)oxy)azepan-1-yl)prop-2-en-1-one]",1000 to 10000 nM,1 to 10 nM
"C=CC(=O)N1CCOC[C@H](Oc2nc(-c3cnn(C)c3)cn3nccc23)C1 [Example 58, (R)-1-(6-((6-(1-methyl-1H-pyrazol-4-yl)pyrazolo[1,5-a]pyrazin-4-yl)oxy)-1,4-oxazepan-4-yl)prop-2-en-1-one]",> 10000 nM,10 to 1000 nM
"C=CC(=O)N1CCC[C@@H](Oc2nc(-c3cnn(C)c3)cn3ncc(C#N)c23)CC1 [Example 59, (R)-4-((1-acryloylazepan-4-yl)oxy)-6-(1-methyl-1H-pyrazol-4-yl)pyrazolo[1,5-a]pyrazine-3-carbonitrile]",< 1000 nM,< 1 nM
"C=CC(=O)N(C)[C@H]1C[C@H](Oc2nc(-c3cnn(C)c3)cn3ncc(C)c23)C1 [Example 60, N-methyl-N-((trans)-3-((3-methyl-6-(1-methyl-1H-pyrazol-4-yl)pyrazolo[1,5-a]pyrazin-4-yl)oxy)cyclobutyl)acrylamide]",> 10000 nM,< 1 nM
"C=CC(=O)N1CCC[C@@H](Oc2nc(-c3cnn(C)c3)cn3ncc(F)c23)CC1 [Example 61, 1-[(4R)-4-[3-fluoro-6-(1-methylpyrazol-4-yl)pyrazolo[1,5-a]pyrazin-4-yl]oxyazepan-1-yl]prop-2-en-1-one]",< 1000 nM,< 1 nM

# Reference: US20240083900A1, “PYRAZOLO[1,5-A]PYRAZINE DERIVATIVES AS BTK INHIBITORS” (BIOGEN MA INC., priority 2020, published 2024)
